Laboratory results taken from article PMC3419191, “Identification of Novel Piperazinylquinoxaline Derivatives as Potent Phosphoinositide 3-Kinase (PI3K) Inhibitors” (PLoS ONE, 2012).

Key:
PC3 cells [1] = test: Apoptosis assay in PC3 cells by flow cytometry (PI); assay type: cell-based, human; details: 24 h, control 1.71%
Description: Piperazinylquinoxaline derivative 41 was further tested for its ability to induce apoptosis in PC3 cells. […] (Fig. 5). With an apoptotic percent of 1.71% of the control, the percent of apoptotic PC3 cells induced by compound 41 and GDC0941 in 5 µM after treatment of 24 h were 4.48% and 3.12%, respectively.
Figure 5 Apoptosis induction of compound 41 and GDC0941 in PC3 cells. After treatment with 41 and GDC0941 (5 or 10 µM) for 24 h, PC3 cells were harvested and detected of apoptosis by flow cytometry using PI apoptosis detection kit. Vertical axes stand for the counts of relative number of PC3 cells; horizontal axes stand for the relative fluorescence light intensity measured as pulse-area (FL2-A). TEXT PRINTED IN THE PICTURE: Compound 41: Apo:4.48% (5μM); Apo:32.83% (10μM) | GDC0941: Apo:3.12% (5μM); Apo:5.65% (10μM)
(§1) For flow cytometry analysis, PC3 cells were treated with DMSO, compound 41 and GDC0941 for 24 h. Cells were washed twice with PBS and fixed in 75% ethanol at −20°C. The cell pellet was resuspended in 100 µL of PBS containing […] RNase (Amerson, Solon, OH, USA), then incubated at 37°C for 0.5 h. After incubation, the cells were stained with 20 mL/L propidium iodide (PI, Sigma, St. Louis, MO, USA) at 4°C for 15 min. The fluorescence of cell was measured with FACSCalibur flow cytometer (Becton-Dickinson, Lincoln Park, NJ, USA).

A549 = test: MTT assay, antiproliferative activity against A549 cells; assay type: cell-based; details: Homo sapiens, 72 h, mean of at least two determinations
Outline: (§2)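 Cells grown in RPMI-1640 with 10% FBS at 37°C, 5% CO2, plated 24 h, then exposed to graded compound concentrations for 72 h. Viability read by MTT absorbance; IC50 is the concentration giving 50% absorbance inhibition versus untreated control.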

PC3 cells [2] = test: Cell cycle arrest in PC3 cells by flow cytometry; assay type: cell-based, human; details: 24 h; for cell cycle arrest: 2 and 4 µM
Description: Moreover, flow cytometric analysis was performed to determine whether target compounds could induce cell cycle arrest in PC3 cells. GDC0941 was used as the positive control. PC3 cells were treated with compound 41 and GDC0941 in two different concentrations (2 and 4 µM) for 24 h, the results are presented as Figure 6.
Figure 6 Cell cycle arrest test of compound 41 and GDC0941 in PC3 cells. Vertical axes stand for the counts of relative number of PC3 cells; horizontal axes stand for the relative fluorescence light intensity measured as pulse-area (FL2-A). TEXT PRINTED IN THE PICTURE: Compound 41: G1: 53.77 % (2μM); G2: 16.76 % (2μM); S: 29.48 % (2μM); G1: 54.38 % (4μM); G2: 15.87 % (4μM); S: 29.75 % (4μM) | GDC0941: G1: 63.66 % (2μM); G2: 21.86 % (2μM); S: 14.48 % (2μM); G1: 71.43 % (4μM); G2: 19.92 % (4μM); S: 8.65 % (4μM)
as §1

recombinant human PI3Kα = target: T1, recombinant human PI3Kα (Homo sapiens, UniProt P42336); test: Competitive fluorescence polarization (FP) assay, inhibition of PI3Kα; assay type: biochemical
T1 construct: purchased Echelon Biosciences (Salt Lake City, UT, USA) E-2000
Description: Selected compounds were then tested for their enzymatic inhibitory activity against PI3Kα using a competitive fluorescence polarization (FP) assay to determine the molecular target of synthesized compounds [21].
The PI3Kα inhibitory test was determined using a competitive fluorescence polarization kinase activity assay. PI3K fluorescence polarization assay kit (catalog No. K-1100) and recombinant human PI3Kα (catalog No. E-2000) were purchased from Echelon Biosciences (Salt Lake City, UT, USA). PI3K reactions were performed in 5 mM HEPES, Ph 7, 2.5 mM MgCl2, 10 mM DTT and 50 µM ATP, using diC8-phosphatidylinositol-4, 5-bisphosphate (PIP2) as the substrate, and the final reaction volumes were 10 µL. For evaluation of the PI3Kα inhibitory activity of target compounds, 50 ng enzyme and 10 µM substate were used per 10 µL reaction volume with the concentrations of inhibitors ranging from 3.2 nM to 10 µM. After incubating for 3 h at room temperature, reactions were quenched by adding chelators. A mixture of phosphoinositide binding protein was added and mixed, followed by the addition of a fluorophore-labeled phosphoinositide tracer. Samples were then mixed in 384-well black Corning nonbinding plates (Corning, NY, USA) and incubated in a dark environment for 1 h to equilibrate. Finally, polarization values were measure using red fluorophores with appropriate filters to determine the extent of enzyme activity in the reaction.

PC3 = test: MTT assay, antiproliferative activity against PC3 cells; assay type: cell-based; details: Homo sapiens, PC-3, 72 h, mean of at least two determinations
Outline: as §2

HCT116 = test: MTT assay, antiproliferative activity against HCT116 cells; assay type: cell-based; details: Homo sapiens, HCT-116, 72 h, mean of at least two determinations
Outline: as §2

T1 sequence (P42336 whole entry): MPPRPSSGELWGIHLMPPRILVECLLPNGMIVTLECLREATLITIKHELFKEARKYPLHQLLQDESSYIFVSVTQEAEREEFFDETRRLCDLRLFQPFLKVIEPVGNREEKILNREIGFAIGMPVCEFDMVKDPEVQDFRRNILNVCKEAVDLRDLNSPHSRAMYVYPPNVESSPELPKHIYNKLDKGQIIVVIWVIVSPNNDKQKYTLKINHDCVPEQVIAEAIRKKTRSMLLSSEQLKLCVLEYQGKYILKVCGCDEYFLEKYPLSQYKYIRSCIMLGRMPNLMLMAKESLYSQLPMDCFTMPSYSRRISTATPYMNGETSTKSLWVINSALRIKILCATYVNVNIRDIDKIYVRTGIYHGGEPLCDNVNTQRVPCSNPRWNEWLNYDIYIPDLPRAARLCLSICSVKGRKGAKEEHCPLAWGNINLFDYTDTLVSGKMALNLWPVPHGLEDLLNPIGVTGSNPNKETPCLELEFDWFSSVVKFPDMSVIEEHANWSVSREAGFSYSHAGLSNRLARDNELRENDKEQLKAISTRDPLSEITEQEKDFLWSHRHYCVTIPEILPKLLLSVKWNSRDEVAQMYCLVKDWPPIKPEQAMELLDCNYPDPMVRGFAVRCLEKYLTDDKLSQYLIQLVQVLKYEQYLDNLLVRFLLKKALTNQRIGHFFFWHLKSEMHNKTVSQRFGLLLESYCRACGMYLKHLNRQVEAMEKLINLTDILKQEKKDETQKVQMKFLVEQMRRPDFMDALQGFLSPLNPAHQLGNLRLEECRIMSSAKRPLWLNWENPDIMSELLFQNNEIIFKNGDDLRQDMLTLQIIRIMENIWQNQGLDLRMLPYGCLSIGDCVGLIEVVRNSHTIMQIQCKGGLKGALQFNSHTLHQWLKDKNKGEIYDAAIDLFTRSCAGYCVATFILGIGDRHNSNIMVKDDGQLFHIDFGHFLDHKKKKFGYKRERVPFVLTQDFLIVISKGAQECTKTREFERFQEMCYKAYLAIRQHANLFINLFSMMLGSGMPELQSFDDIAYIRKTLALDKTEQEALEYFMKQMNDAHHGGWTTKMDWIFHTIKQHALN
T1 sequence (P27986 whole entry partner): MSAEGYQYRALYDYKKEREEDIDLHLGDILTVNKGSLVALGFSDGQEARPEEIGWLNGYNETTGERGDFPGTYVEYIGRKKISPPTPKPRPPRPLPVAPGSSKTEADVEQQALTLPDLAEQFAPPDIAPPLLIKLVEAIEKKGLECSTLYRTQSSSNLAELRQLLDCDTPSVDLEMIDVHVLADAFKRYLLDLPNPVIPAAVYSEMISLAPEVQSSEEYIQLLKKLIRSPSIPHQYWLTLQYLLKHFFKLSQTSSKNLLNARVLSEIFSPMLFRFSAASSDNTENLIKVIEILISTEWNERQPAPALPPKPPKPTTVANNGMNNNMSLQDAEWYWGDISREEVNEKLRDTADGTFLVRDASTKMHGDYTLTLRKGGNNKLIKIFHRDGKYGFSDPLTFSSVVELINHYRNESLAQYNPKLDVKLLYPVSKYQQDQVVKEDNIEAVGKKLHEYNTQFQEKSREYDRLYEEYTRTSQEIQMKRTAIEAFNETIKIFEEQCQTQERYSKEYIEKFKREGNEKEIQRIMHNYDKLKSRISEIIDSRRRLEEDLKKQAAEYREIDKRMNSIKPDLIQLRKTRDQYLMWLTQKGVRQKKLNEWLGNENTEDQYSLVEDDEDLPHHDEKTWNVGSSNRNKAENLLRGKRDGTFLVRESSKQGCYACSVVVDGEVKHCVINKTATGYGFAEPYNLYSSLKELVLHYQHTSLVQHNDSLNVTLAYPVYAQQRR

Row | SMILES | percent of apoptotic PC3 cells (PC3 cells [1]; 5 µM) | percent of apoptotic PC3 cells (PC3 cells [1]; 10 µM) | melting point | IC50 (A549) | percent of cells in G1 (PC3 cells [2]; 2 µM) | percent of cells in G2 (PC3 cells [2]; 2 µM) | percent of cells in S (PC3 cells [2]; 2 µM) | percent of cells in G1 (PC3 cells [2]; 4 µM) | percent of cells in G2 (PC3 cells [2]; 4 µM) | percent of cells in S (PC3 cells [2]; 4 µM) | cell cycle arrest (PC3 cells [2]) | Binding efficiency index (BEI) (recombinant human PI3Kα; BEI = pIC50 (M)/MW (kDa), PI3Kα) | IC50 (recombinant human PI3Kα; FP assay, 50 µM ATP, mean of at least two determinations) | IC50 (PC3) | IC50 (HCT116)
1 | COc1ccc(S(=O)(=O)c2nc3ccccc3nc2N2CCN(S(C)(=O)=O)CC2)cc1 [Compound 41, 2-(4-(Methylsulfonyl)piperazin-1-yl)-3-(4-methoxyphenylfsulfonyl)quinoxaline] | 4.48% | 32.83% | 177 to 179 °C | 1.32 µM | 53.77% | 16.76% | 29.48% | 54.38% | 15.87% | 29.75% | showed similar trend while the percent of cell in G1 phase was smaller | 16.5 | 0.024 µM | 2.21 µM | 0.55 µM
2 | CS(=O)(=O)N1CCN(Cc2cc3nc(-c4cccc5[nH]ncc45)nc(N4CCOCC4)c3s2)CC1 [GDC0941, 2-(1H-Indazol-4-yl)-6-(4-methanesulfonyl-piperazin-1-ylmethyl)-4-morpholin-4-yl-thieno[3,2-d]pyrimidine, reference compound] | 3.12% | 5.65% | – | – | 63.66% | 21.86% | 14.48% | 71.43% | 19.92% | 8.65% | induced cell cycle arrest in G1 phase | – | – | – | –
